In patent US20250123282A1, “METHODS FOR EVALUATION AND TREATMENT OF TYROSINE KINASE INHIBITOR (TKI)-RESISTANT ACUTE MYELOID LEUKEMIA” (LOMA LINDA UNIVERSITY, priority 2021, published 2025):

Tests used:
[1] = tested on: MOLM-14 cells; test: Phase-bright imaging of re-growth of TKI-treated MOLM-14; format: cell-based, human; conditions: 10 days after TKI treatment
From the text: To follow the cell fate of TKI-treated MV4-11 and MOLM-14, culturing of blasts were continued by performing medium change every 2-3 days. […] The BAD protein is a pro-apoptotic member of the BCL-2 gene family, which is involved in initiating apoptosis. Dephosphorylated BAD is pro-apoptotic by binding BCL-2 and inactivating BCL-2, while phosphorylated BAD (pBAD) is anti-apoptotic by leaving BCL-2 free to inhibit BAX-triggered apoptosis.
Small Molecular Inhibitors and in vitro & ex vivo Treatment. […] The dose of 80 nM for the four TKIs was selected based on their dose-dependent cytotoxicity in previous reports. […] Both GILT and QUIZ were reported to start to suppress the tumorigenic clustering and c-Kit at the dose of 80 nM. […] The combination of 5 μM 5-Azacitidine (AZA) and 80 nM 1α,25-Dihydroxyvitamin D3 (VD3) was added to the experimental group similar to the previous report. As combination agents to treat blasts in vitro, one dose of 80 nM GILT with one dose of either 100 nM Venetoclax (BCL2 inhibitor), 10 μM (R)-Lisofylline (STAT4 inhibitor), 100 nM AZD1208 (PIM inhibitor), 500 nM PF-06826647 (TYK2 inhibitor), or 500 nM AT9283 (JAK2/3 inhibitor) were added to 1 ml of 1×10^6 cells for each experimental group in 24 well plates. Three days after the one dose treatment, cells were then collected for either analyses by FACS and qPCR, or re-plated into 24 well plates for continued culture. […]

[2] = tested on: primary AML BMMNC; test: Human cytokine proteome profile array of cell-free supernatants from treated primary AML BMMNC; format: cell-based; conditions: 80 nM GILT, 3 days ex vivo, Patient #1 and #2, vs non-treated control
Procedure: To identify the protein(s) responsible for initiation of the survival mechanism and subsequent proliferation of AML blasts, human cytokine proteome profile arrays of cell-free supernatants from GILT-treated MV4-11's cultures were performed. […] Under the no treatment (No Tx) condition, MV4-11 releases numerous cytokines such as MIF in their supernatant; however, one dose of GILT-treatment eliminated release of a variety of cytokines such as osteopontin (arrows, FIG. 7A), a protein closely associated with adverse prognosis in AML patients. Next, bone marrow mononuclear cells (BMMNC) from AML patients were treated for 3 days ex vivo.
Human Samples. AML bone marrow (BM) mononuclear cells (BMMNC) (Patients #1-7, Table 4) were obtained from the City of Hope National Medical Center (COHNMC). All donor patients signed an informed consent form. Sample acquisition was approved by the Institutional Review Boards at the LLUMC and the COHNMC in accordance with an assurance filed with and approved by the Department of Health and Human Services, and it met all requirements of the Declaration of Helsinki.
For MIF in vitro experiments, different doses of MIF were added to 1 ml of 1×10^6 MV4-11 cells or RAW264.7 cells for each experimental group in 24-well plates. Two days after the one dose treatment, cells were then collected for either analyses by FACS and qPCR. […]

Row | Structure (SMILES) | re-growth / tumorigenic clusters of MOLM-14 [1] | MIF release increase in the supernatant [2] [fold]
1 | CC(C)(C)c1cc(NC(=O)Nc2ccc(-c3cn4c(n3)sc3cc(OCCN5CCOCC5)ccc34)cc2)no1 [QUIZ, Quizartinib] | few newly formed tumorigenic clusters | 
2 | CCc1nc(C(N)=O)c(Nc2ccc(N3CCC(N4CCN(C)CC4)CC3)c(OC)c2)nc1NC1CCOCC1 [GILT, Gilteritinib] |  | 2.1
